{"source": "patent US9695155B2", "about": "“Herbicidal substituted pyrimidinyloxy benzene compounds” (E. I. DU PONT DE NEMOURS AND COMPANY, priority 2013, dated 2017)", "key": {"corn [1]": {"tested_on": "corn", "experiment": "Test A postemergence", "type": "in vivo, Zea mays", "conditions": "Zea mays, post-emergence, 240 h, 0 to 100 scale where 0 is no effect and 100 is complete control", "procedure,_shortened": "(§1)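 Scoring: eye-based comparison with untreated controls, 0 for no effect through 100 for complete control, at about day 10. Treatments: directed soil spray preemergence; foliar spray postemergence on 2–10 cm plants at the one- to two-leaf stage. Medium: loam soil with sand.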"}, "johnsongrass": {"tested_on": "johnsongrass", "experiment": "Test C postemergence", "type": "in vivo, Sorghum halepense", "procedure,_shortened": "(§2)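 Injury was assessed visually against controls 13 to 15 days after application, with 0 meaning no effect and 100 full control; missing entries are shown as a dash. Preemergence sprays hit seeded loam–sand soil, postemergence sprays hit 1- to 4-leaf plants.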"}, "pigweed [2]": {"tested_on": "pigweed", "experiment": "Test A postemergence", "type": "in vivo, Amaranthus retroflexus", "conditions": "Amaranthus retroflexus, post-emergence, 0 to 100 scale where 0 is no effect and 100 is complete control", "procedure,_shortened": "as §1"}, "giant foxtail": {"tested_on": "giant foxtail", "experiment": "Test C postemergence", "type": "in vivo, Setaria faberii", "conditions": "Setaria faberi, post-emergence", "procedure,_shortened": "as §2"}, "corn [3]": {"tested_on": "corn", "experiment": "Test C postemergence", "type": "in vivo, Zea mays", "conditions": "Zea mays, post-emergence", "procedure,_shortened": "as §2"}, "kochia": {"tested_on": "kochia", "experiment": "Test C postemergence", "type": "in vivo, Kochia scoparia", "conditions": "Bassia scoparia, post-emergence", "procedure,_shortened": "as §2"}, "pigweed [4]": {"tested_on": "pigweed", "experiment": "Test A preemergence", "type": "in vivo, Amaranthus retroflexus", "conditions": "Amaranthus retroflexus, pre-emergence, 0 to 100 scale where 0 is no effect and 100 is complete control", "procedure,_shortened": "as §1"}, "barnyardgrass": {"tested_on": "barnyardgrass", "experiment": "Test C postemergence", "type": "in vivo, Echinochloa crus-galli", "conditions": "Echinochloa crus-galli, post-emergence", "procedure,_shortened": "as §2"}, "Italian ryegrass": {"tested_on": "Italian ryegrass", "experiment": "Test C postemergence", "type": "in vivo, Lolium multiflorum", "procedure,_shortened": "as §2"}, "wild oat": {"tested_on": "wild oat", "experiment": "Test C postemergence", "type": "in vivo, Avena fatua", "procedure,_shortened": "as §2"}, "pigweed [5]": {"tested_on": "pigweed", "experiment": "Test C postemergence", "type": "in vivo, Amaranthus retroflexus", "procedure,_shortened": "as §2"}, "soybean": {"tested_on": "soybean", "experiment": "Test C postemergence", "type": "in vivo, Glycine max", "procedure,_shortened": "as §2"}, "waterhemp": {"tested_on": "waterhemp", "experiment": "Test C postemergence", "type": "in vivo, Amaranthus rudis", "procedure,_shortened": "as §2"}, "[6]": {"conditions": "31 g ai/ha, postemergence, visual rating, scale 0 to 100 (0 no effect, 100 complete control), 13 to 15 days"}}, "data": [{"smiles": "FC(F)c1cn(-c2ccccc2Oc2ncc(Cl)cn2)nn1", "note": "[Compound 147, 5-chloro-2-[2-[4-(difluoromethyl)-1H-1,2,3-triazol-1-yl]phenoxy]pyrimidine]", "values": [{"measurement": "plant injury at 125 g/ha", "setting": "corn [1]; 125 g ai/ha, read-out: Corn plant response rating", "result": 40, "unit": "%"}, {"measurement": "Corn plant response rating (crop injury, 0 = no effect, 100 = complete kill) at 500 g/ha", "setting": "corn [1]; 500 g ai/ha", "result": 90, "unit": "%"}, {"measurement": "Johnsongrass plant response rating", "setting": "johnsongrass; [6]", "result": 5}, {"measurement": "pest or weed control at 16 g/ha", "setting": "johnsongrass; Sorghum halepense, post-emergence, 16 g ai/ha, postemergence, 0 is no effect, 100 is complete control, read-out: Plant response rating (0 to 100), Johnsongrass", "result": 5, "unit": "%"}, {"measurement": "pest or weed control at 125 g/ha", "setting": "johnsongrass; Sorghum halepense, post-emergence, 125 g ai/ha, postemergence, visual rating, scale 0 to 100 (0 no effect, 100 complete control), read-out: Plant response rating, Johnsongrass", "result": 10, "unit": "%"}, {"measurement": "pest or weed control at 62 g/ha", "setting": "johnsongrass; Sorghum halepense, post-emergence, Postemergence, 62 g ai/ha, scale 0 to 100 (0 no effect, 100 complete control), read-out: Plant response rating, Johnsongrass", "result": 5, "unit": "%"}, {"measurement": "pest or weed control at 500 g/ha", "setting": "pigweed [2]; 500 g ai/ha, read-out: Plant response rating, Pigweed", "result": 100, "unit": "%"}, {"measurement": "pest or weed control at 125 g/ha", "setting": "pigweed [2]; 240 h, 125 g ai/ha, read-out: Pigweed plant response rating", "result": 100, "unit": "%"}, {"measurement": "pest or weed control at 16 g/ha", "setting": "giant foxtail; 16 g ai/ha, postemergence, 0 is no effect, 100 is complete control, read-out: Plant response rating (0 to 100), Foxtail, Giant", "result": 0, "unit": "%"}, {"measurement": "pest or weed control at 31 g/ha", "setting": "giant foxtail; 31 g ai/ha, postemergence, visual rating, scale 0 to 100 (0 no effect, 100 complete control), 13 to 15 days, read-out: Foxtail, Giant plant response rating", "result": 0, "unit": "%"}, {"measurement": "pest or weed control at 125 g/ha", "setting": "giant foxtail; 125 g ai/ha, postemergence, visual rating, scale 0 to 100 (0 no effect, 100 complete control), read-out: Plant response rating, Foxtail, Giant", "result": 50, "unit": "%"}, {"measurement": "pest or weed control at 62 g/ha", "setting": "giant foxtail; Postemergence, 62 g ai/ha, scale 0 to 100 (0 no effect, 100 complete control), read-out: Plant response rating, Foxtail, Giant", "result": 20, "unit": "%"}, {"measurement": "plant injury at 16 g/ha", "setting": "corn [3]; 16 g ai/ha, postemergence, 0 is no effect, 100 is complete control, read-out: Plant response rating (0 to 100), Corn", "result": 5, "unit": "%"}, {"measurement": "plant injury at 31 g/ha", "setting": "corn [3]; 31 g ai/ha, postemergence, visual rating, scale 0 to 100 (0 no effect, 100 complete control), 13 to 15 days, read-out: Corn plant response rating", "result": 5, "unit": "%"}, {"measurement": "Corn plant response rating (crop injury, 0 = no effect, 100 = complete kill) at 125 g/ha", "setting": "corn [3]; 125 g ai/ha, postemergence, visual rating, scale 0 to 100 (0 no effect, 100 complete control)", "result": 10, "unit": "%"}, {"measurement": "Corn plant response rating (crop injury, 0 = no effect, 100 = complete kill) at 62 g/ha", "setting": "corn [3]; Postemergence, 62 g ai/ha, scale 0 to 100 (0 no effect, 100 complete control)", "result": 5, "unit": "%"}, {"measurement": "pest or weed control at 16 g/ha", "setting": "kochia; 16 g ai/ha, postemergence, 0 is no effect, 100 is complete control, read-out: Plant response rating (0 to 100), Kochia", "result": 40, "unit": "%"}, {"measurement": "pest or weed control at 31 g/ha", "setting": "kochia; 31 g ai/ha, postemergence, visual rating, scale 0 to 100 (0 no effect, 100 complete control), 13 to 15 days, read-out: Kochia plant response rating", "result": 90, "unit": "%"}, {"measurement": "pest or weed control at 125 g/ha", "setting": "kochia; 125 g ai/ha, postemergence, visual rating, scale 0 to 100 (0 no effect, 100 complete control), read-out: Plant response rating, Kochia", "result": 100, "unit": "%"}, {"measurement": "pest or weed control at 62 g/ha", "setting": "kochia; Postemergence, 62 g ai/ha, scale 0 to 100 (0 no effect, 100 complete control), read-out: Plant response rating, Kochia", "result": 95, "unit": "%"}, {"measurement": "pest or weed control at 125 g/ha", "setting": "pigweed [4]; 125 g ai/ha, read-out: Plant response rating, Pigweed", "result": 100, "unit": "%"}, {"measurement": "pest or weed control at 500 g/ha", "setting": "pigweed [4]; 240 h, 500 g ai/ha, read-out: Pigweed plant response rating", "result": 100, "unit": "%"}, {"measurement": "pest or weed control at 16 g/ha", "setting": "barnyardgrass; 16 g ai/ha, postemergence, 0 is no effect, 100 is complete control, read-out: Plant response rating (0 to 100), Barnyardgrass", "result": 0, "unit": "%"}, {"measurement": "pest or weed control at 31 g/ha", "setting": "barnyardgrass; 31 g ai/ha, postemergence, visual rating, scale 0 to 100 (0 no effect, 100 complete control), 13 to 15 days, read-out: Barnyardgrass plant response rating", "result": 5, "unit": "%"}, {"measurement": "pest or weed control at 125 g/ha", "setting": "barnyardgrass; 125 g ai/ha, postemergence, visual rating, scale 0 to 100 (0 no effect, 100 complete control), read-out: Plant response rating, Barnyardgrass", "result": 10, "unit": "%"}, {"measurement": "pest or weed control at 62 g/ha", "setting": "barnyardgrass; Postemergence, 62 g ai/ha, scale 0 to 100 (0 no effect, 100 complete control), read-out: Plant response rating, Barnyardgrass", "result": 5, "unit": "%"}, {"measurement": "Ryegrass, Italian plant response rating", "setting": "Italian ryegrass; [6]", "result": 0}, {"measurement": "pest or weed control at 16 g/ha", "setting": "Italian ryegrass; Lolium multiflorum, post-emergence, 16 g ai/ha, postemergence, 0 is no effect, 100 is complete control, read-out: Plant response rating (0 to 100), Ryegrass, Italian", "result": 0, "unit": "%"}, {"measurement": "pest or weed control at 125 g/ha", "setting": "Italian ryegrass; Lolium multiflorum, post-emergence, 125 g ai/ha, postemergence, visual rating, scale 0 to 100 (0 no effect, 100 complete control), read-out: Plant response rating, Ryegrass, Italian", "result": 5, "unit": "%"}, {"measurement": "pest or weed control at 62 g/ha", "setting": "Italian ryegrass; Lolium multiflorum, post-emergence, Postemergence, 62 g ai/ha, scale 0 to 100 (0 no effect, 100 complete control), read-out: Plant response rating, Ryegrass, Italian", "result": 0, "unit": "%"}, {"measurement": "Oat, Wild plant response rating", "setting": "wild oat; [6]", "result": 0}, {"measurement": "pest or weed control at 16 g/ha", "setting": "wild oat; Avena fatua, post-emergence, 16 g ai/ha, postemergence, 0 is no effect, 100 is complete control, read-out: Plant response rating (0 to 100), Oat, Wild", "result": 0, "unit": "%"}, {"measurement": "pest or weed control at 125 g/ha", "setting": "wild oat; Avena fatua, post-emergence, 125 g ai/ha, postemergence, visual rating, scale 0 to 100 (0 no effect, 100 complete control), read-out: Plant response rating, Oat, Wild", "result": 5, "unit": "%"}, {"measurement": "pest or weed control at 62 g/ha", "setting": "wild oat; Avena fatua, post-emergence, Postemergence, 62 g ai/ha, scale 0 to 100 (0 no effect, 100 complete control), read-out: Plant response rating, Oat, Wild", "result": 0, "unit": "%"}, {"measurement": "Pigweed plant response rating", "setting": "pigweed [5]; [6]", "result": 60}, {"measurement": "pest or weed control at 16 g/ha", "setting": "pigweed [5]; Amaranthus retroflexus, post-emergence, 16 g ai/ha, postemergence, 0 is no effect, 100 is complete control, read-out: Plant response rating (0 to 100), Pigweed", "result": 35, "unit": "%"}, {"measurement": "pest or weed control at 125 g/ha", "setting": "pigweed [5]; Amaranthus retroflexus, post-emergence, 125 g ai/ha, postemergence, visual rating, scale 0 to 100 (0 no effect, 100 complete control), read-out: Plant response rating, Pigweed", "result": 85, "unit": "%"}, {"measurement": "pest or weed control at 62 g/ha", "setting": "pigweed [5]; Amaranthus retroflexus, post-emergence, Postemergence, 62 g ai/ha, scale 0 to 100 (0 no effect, 100 complete control), read-out: Plant response rating, Pigweed", "result": 75, "unit": "%"}, {"measurement": "Soybean plant response rating", "setting": "soybean; [6]", "result": 65}, {"measurement": "Soybean plant response rating (crop injury, 0-100 scale) at 16 g/ha", "setting": "soybean; Glycine max, post-emergence, 16 g ai/ha, postemergence, 0 is no effect, 100 is complete control", "result": 65, "unit": "%"}, {"measurement": "Soybean plant response rating (crop injury, 0-100 scale) at 125 g/ha", "setting": "soybean; Glycine max, post-emergence, 125 g ai/ha, postemergence, visual rating, scale 0 to 100 (0 no effect, 100 complete control), read-out: Plant response rating, Soybean", "result": 90, "unit": "%"}, {"measurement": "Soybean plant response rating (crop injury, 0-100 scale) at 62 g/ha", "setting": "soybean; Glycine max, post-emergence, Postemergence, 62 g ai/ha, scale 0 to 100 (0 no effect, 100 complete control)", "result": 85, "unit": "%"}, {"measurement": "Waterhemp plant response rating", "setting": "waterhemp; [6]", "result": 55}, {"measurement": "pest or weed control at 16 g/ha", "setting": "waterhemp; Amaranthus tuberculatus, post-emergence, 16 g ai/ha, postemergence, 0 is no effect, 100 is complete control, read-out: Plant response rating (0 to 100), Waterhemp", "result": 40, "unit": "%"}, {"measurement": "pest or weed control at 125 g/ha", "setting": "waterhemp; Amaranthus tuberculatus, post-emergence, 125 g ai/ha, postemergence, visual rating, scale 0 to 100 (0 no effect, 100 complete control), read-out: Plant response rating, Waterhemp", "result": 70, "unit": "%"}, {"measurement": "pest or weed control at 62 g/ha", "setting": "waterhemp; Amaranthus tuberculatus, post-emergence, Postemergence, 62 g ai/ha, scale 0 to 100 (0 no effect, 100 complete control), read-out: Plant response rating, Waterhemp", "result": 85, "unit": "%"}]}]}
